Patent publication US9090538B2, “Uses of esteramide compounds” (priority 2010, dated 2015)

How the values were obtained:
Type in all cases: physicochemical
Set-up in all cases: key: Crystal: When the formation of active crystals is observed, the term of <> is indicated; Limpid: When the solution remains limpid (absence of solid or cloudiness), it is the term of <> which is indicated
[1] = Visual observation at 25° C. of formulation of active in solvent
Experimental: (§1) Formulations were made by diluting various actives, reported below in the table, in the compounds 1-4 synthesized above.
1) Visual observation at 25° C.
The aspect of the formulation is noted and the presence of crystals is possibly located.
(§2) The actives used are commercially available.

[2] = Visual observation at 0° C. after 7 days (CIPAC MT39 test); settings: 7 days at 0° C.
Experimental: as §1
2) Visual observation at 0° C.
The formulation is placed at 0° C. for 7 days and the aspect of the formulation is noted and the presence of crystals is possibly located (CIPAC MT39 test).
as §2

[3] = Visual observation at 0° C. with nucleation (crystal of pure active introduced, 7 more days at 0° C.); settings: crystal of active added
Experimental: as §1
3) Visual observation at 0° C. with nucleation (by introducing a crystal of the pure active into the liquid)
A crystal of the active material is introduced into the formulation which has spent 7 days at 0° C. for nucleation, and the formulation is again placed for 7 days at 0° C. The aspect of the formulation is noted and the presence of crystals or the growth of the introduced crystal is possibly located.
as §2

[4] = active Alachlor 48% EC in the compound as solvent
[5] = active Azoxystrobine 25% EC in the compound as solvent
[6] = active Difenconazole 25% EC in the compound as solvent
[7] = active Dimethoate 40% EC in the compound as solvent
[8] = active Oxyfluorfen 22% EC in the compound as solvent
[9] = active Pendimethalin 33% EC in the compound as solvent
[10] = active Phenmedipham 16% EC in the compound as solvent
[11] = active Propanil 36% EC in the compound as solvent
[12] = active Propuxur 20% EC in the compound as solvent
[13] = active Tebuconazole 25% EC in the compound as solvent
[14] = active Trifluralin 40% EC in the compound as solvent
[15] = active alpha-Cypermethrin 10% EC in the compound as solvent
[16] = active Chlorpyrifos 40% EC in the compound as solvent

For `COC(=O)C(=O)N(C)C` [Compound 1, methyl 2-(dimethylamino)-2-oxoacetate], the “Aspect at 25° C.” value [1, 4] was “Limpid”, the “Aspect at 25° C.” value [1, 5] was “Limpid” and the “Aspect at 25° C.” value [1, 6] was “Limpid”. For the same molecule, the “Aspect at 25° C.” value [1, 7] was “Limpid”, the “Aspect at 25° C.” value [1, 8] was “Limpid” and the “Aspect at 25° C.” value [1, 9] was “Limpid”. For the same molecule, the “Aspect at 25° C.” value [1, 10] was “Limpid”, the “Aspect at 25° C.” value [1, 11] was “Limpid” and the “Aspect at 25° C.” value [1, 12] was “Limpid”. The “Aspect at 25° C.” value [1, 13] was “Limpid”, the “Aspect at 25° C.” value [1, 14] was “Limpid” and the “Aspect at 25° C.” value [1, 15] was “Limpid”. For the same molecule, the “Aspect at 0° C.” value [2, 4] was “Limpid”, the “Aspect at 0° C.” value [2, 5] was “Crystal” and the “Aspect at 0° C.” value [2, 6] was “Limpid”. For the same molecule, the “Aspect at 0° C.” value [2, 7] was “Crystal”, the “Aspect at 0° C.” value [2, 8] was “Crystal” and the “Aspect at 0° C.” value [2, 9] was “Crystal”. The “Aspect at 0° C.” value [2, 10] was “Limpid”, the “Aspect at 0° C.” value [2, 11] was “Limpid” and the “Aspect at 0° C.” value [2, 12] was “Limpid”. The “Aspect at 0° C.” value [2, 13] was “Crystal”, the “Aspect at 0° C.” value [2, 14] was “Crystal” and the “Aspect at 0° C.” value [2, 15] was “Limpid”. For the same molecule, the “Aspect at 0° C. with nucleation” value [3, 4] was “Limpid”, the “Aspect at 0° C. with nucleation” value [3, 6] was “Limpid” and the “Aspect at 0° C. with nucleation” value [3, 10] was “Limpid”. For the same molecule, the “Aspect at 0° C. with nucleation” value [3, 11] was “Limpid”, the “Aspect at 0° C. with nucleation” value [3, 12] was “Limpid” and the “Aspect at 0° C. with nucleation” value [3, 15] was “Limpid”.

With `CCOC(=O)C(=O)N(C)C` [Compound 2, ethyl 2-(dimethylamino)-2-oxoacetate] the “Aspect at 25° C.” value [1, 4] was “Limpid”, the “Aspect at 25° C.” value [1, 5] was “Limpid” and the “Aspect at 25° C.” value [1, 16] was “Limpid”. The “Aspect at 25° C.” value [1, 6] was “Limpid”, the “Aspect at 25° C.” value [1, 7] was “Limpid” and the “Aspect at 25° C.” value [1, 8] was “Limpid”. The “Aspect at 25° C.” value [1, 9] was “Limpid”, the “Aspect at 25° C.” value [1, 10] was “Limpid” and the “Aspect at 25° C.” value [1, 11] was “Limpid”. The “Aspect at 25° C.” value [1, 12] was “Limpid”, the “Aspect at 25° C.” value [1, 13] was “Limpid” and the “Aspect at 25° C.” value [1, 14] was “Limpid”. For the same molecule, the “Aspect at 25° C.” value [1, 15] was “Limpid”, the “Aspect at 0° C.” value [2, 4] was “Limpid” and the “Aspect at 0° C.” value [2, 5] was “Crystal”. For the same molecule, the “Aspect at 0° C.” value [2, 16] was “Limpid”, the “Aspect at 0° C.” value [2, 6] was “Limpid” and the “Aspect at 0° C.” value [2, 7] was “Limpid”. The “Aspect at 0° C.” value [2, 8] was “Limpid”, the “Aspect at 0° C.” value [2, 9] was “Crystal” and the “Aspect at 0° C.” value [2, 10] was “Limpid”. For the same molecule, the “Aspect at 0° C.” value [2, 11] was “Limpid”, the “Aspect at 0° C.” value [2, 12] was “Crystal” and the “Aspect at 0° C.” value [2, 13] was “Crystal”. For the same molecule, the “Aspect at 0° C.” value [2, 14] was “Limpid”, the “Aspect at 0° C.” value [2, 15] was “Limpid” and the “Aspect at 0° C. with nucleation” value [3, 4] was “Limpid”. For the same molecule, the “Aspect at 0° C. with nucleation” value [3, 16] was “Limpid”, the “Aspect at 0° C. with nucleation” value [3, 6] was “Limpid” and the “Aspect at 0° C. with nucleation” value [3, 7] was “Crystal”. The “Aspect at 0° C. with nucleation” value [3, 8] was “Limpid”, the “Aspect at 0° C. with nucleation” value [3, 10] was “Limpid” and the “Aspect at 0° C. with nucleation” value [3, 11] was “Limpid”. The “Aspect at 0° C. with nucleation” value [3, 14] was “Limpid” and the “Aspect at 0° C. with nucleation” value [3, 15] was “Limpid”.

For `CCCCC(CC)COC(=O)C(=O)N(C)C` (centres unmarked) [Compound 3, 2-ethyl-hexyl 2-(dimethylamino)-2-oxoacetate], the “Aspect at 25° C.” value [1, 4] was “Limpid”, the “Aspect at 25° C.” value [1, 16] was “Limpid” and the “Aspect at 25° C.” value [1, 6] was “Limpid”. For the same molecule, the “Aspect at 25° C.” value [1, 7] was “Limpid”, the “Aspect at 25° C.” value [1, 8] was “Limpid” and the “Aspect at 25° C.” value [1, 9] was “Limpid”. The “Aspect at 25° C.” value [1, 11] was “Limpid”, the “Aspect at 25° C.” value [1, 12] was “Limpid” and the “Aspect at 25° C.” value [1, 14] was “Limpid”. The “Aspect at 25° C.” value [1, 15] was “Limpid”, the “Aspect at 0° C.” value [2, 4] was “Limpid” and the “Aspect at 0° C.” value [2, 16] was “Limpid”. For the same molecule, the “Aspect at 0° C.” value [2, 6] was “Limpid”, the “Aspect at 0° C.” value [2, 7] was “Crystal” and the “Aspect at 0° C.” value [2, 8] was “Limpid”. The “Aspect at 0° C.” value [2, 9] was “Crystal”, the “Aspect at 0° C.” value [2, 11] was “Limpid” and the “Aspect at 0° C.” value [2, 12] was “Crystal”. The “Aspect at 0° C.” value [2, 14] was “Limpid”, the “Aspect at 0° C.” value [2, 15] was “Limpid” and the “Aspect at 0° C. with nucleation” value [3, 4] was “Limpid”. For the same molecule, the “Aspect at 0° C. with nucleation” value [3, 16] was “Limpid”, the “Aspect at 0° C. with nucleation” value [3, 6] was “Limpid” and the “Aspect at 0° C. with nucleation” value [3, 8] was “Crystal”. The “Aspect at 0° C. with nucleation” value [3, 11] was “Limpid”, the “Aspect at 0° C. with nucleation” value [3, 14] was “Limpid” and the “Aspect at 0° C. with nucleation” value [3, 15] was “Limpid”.

For `CCCCCCCCCCOC(=O)C(=O)N(C)C` [Compound 4, n-decyl 2-(dimethylamino)-2-oxoacetate], the “Aspect at 25° C.” value [1, 4] was “Limpid”, the “Aspect at 25° C.” value [1, 16] was “Limpid” and the “Aspect at 25° C.” value [1, 6] was “Limpid”. The “Aspect at 25° C.” value [1, 8] was “Limpid”, the “Aspect at 25° C.” value [1, 11] was “Limpid” and the “Aspect at 25° C.” value [1, 14] was “Limpid”. The “Aspect at 0° C.” value [2, 4] was “Limpid”, the “Aspect at 0° C.” value [2, 16] was “Crystal” and the “Aspect at 0° C.” value [2, 6] was “Limpid”. For the same molecule, the “Aspect at 0° C.” value [2, 8] was “Crystal”, the “Aspect at 0° C.” value [2, 11] was “Crystal” and the “Aspect at 0° C.” value [2, 14] was “Limpid”. The “Aspect at 0° C. with nucleation” value [3, 4] was “Limpid”, the “Aspect at 0° C. with nucleation” value [3, 6] was “Limpid” and the “Aspect at 0° C. with nucleation” value [3, 14] was “Limpid”.
